The text below walks through data of PubChem BioAssay AID463136 (University of Pittsburgh Molecular Library Screening Center, 2010).

Assay [1] deals with HCS imaging, dynein-mediated cargo transport inhibition. The assay is described as follows: dynein cargo transport inhibitors, potency, dose response, imaging, high-content imaging (AID 463136).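 Further: mouse mammary adenocarcinoma 3617.4 cells expressing GFP-tagged rat glucocorticoid receptor.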
Experiment in assay [2]: as above
As to conditions: HCS imaging, dynein-mediated cargo transport inhibition; inhibition at max concentration; at 50 µM; stronger effect = higher value.

SMILES strings stand for the structures. Inconclusive results are not listed. The source made the active and inactive calls. How the calls were made is not given here.

In the case of `COC(=O)c1cc(=O)n(CCc2ccccc2F)c(=Nc2ccc(F)c(Cl)c2)s1`, the IC50 (commonly the point on the concentration scale where inhibition reaches its midpoint) in assay [1] was > 50 µM (inactive). The inhibition (commonly the drop in the measured response relative to a control, in per cent) in assay [2] came to 11.9%.

With `O=C(OCCN1C(=O)c2cccc3c(N4CCOCC4)ccc(c23)C1=O)c1ccc(Cl)cc1Cl`, the IC50 in assay [1] is > 50 µM (inactive). Further, in assay [2], the inhibition turned out to be 2.73%.

Take `COc1ccccc1NS(=O)(=O)c1cc([N+](=O)[O-])ccc1N/N=C/c1c[nH]c2ccccc12`: the IC50 in assay [1] was > 50 µM (inactive). This molecule yielded an inhibition in assay [2] of 21.9%.

`C=CS(=O)(=O)c1sc(Cl)c(N2CCOCC2)c1[N+](=O)[O-]`: the IC50 in assay [1] was > 50 µM (inactive). This molecule yielded an inhibition in assay [2] of 10.2%.

Consider `C=C1C(=O)[C@@]23[C@H](O)C[C@@H]4C(C)(C)CC[C@H](O)[C@@]4(C)[C@@H]2CC[C@@H]1[C@H]3O`, for which, in assay [1], the 50% inhibitory concentration (IC50) was 6.12 µM. In assay [2], this molecule registered an inhibition of 87.3%.

In the case of `Cc1cccc(N2C(=O)NC(=O)/C(=C\C=C\c3ccco3)C2=O)c1`, the IC50 in assay [1] was 33.4 µM. The same molecule yielded an inhibition in assay [2] of 89.4%.

Turning to `CC[n+]1c(/C=C/C=C/N(C(C)=O)c2ccccc2)sc2ccccc21`, in assay [1], the IC50 was 1.08 µM. Besides, the inhibition in assay [2] came out at 99.6%.

As for `COC(=O)c1cc(=O)n(Cc2ccco2)c(=Nc2ccc(F)c(Cl)c2)s1`, in assay [1], the IC50 was > 50 µM (inactive). Further, the inhibition in assay [2] was 31.4%.

As to `CN(C)CC(C(=O)c1ccccc1)c1ccccc1` (stereo unspecified), in assay [1], the concentration for half-maximal inhibition (IC50) was 8.37 µM. The molecule further yielded an inhibition in assay [2] of 70.5%.

In the case of `COc1ccc(OC)c(N2C(=O)NC(=O)/C(=C\c3ccc([N+](=O)[O-])s3)C2=O)c1`, the IC50 in assay [1] is 11.9 µM. The inhibition in assay [2] amounted to 86.7%.

As for `COc1cccc(N2C(=O)NC(=O)/C(=C/c3ccc([N+](=O)[O-])s3)C2=O)c1`, the IC50 in assay [1] was 10.7 µM. The inhibition in assay [2] worked out at 87.8%.

`COc1ccc(NC(=O)/C(Cl)=C(/Cl)S(=O)Cc2ccc(C)cc2)cn1` (stereo unspecified): the IC50 in assay [1] was 23.4 µM. Besides, in assay [2], the inhibition is 54.7%.

As for `Cc1cccc(N(Cc2ccccc2)C(=O)CCl)c1`, the IC50 in assay [1] is 11.9 µM. In addition, the inhibition in assay [2] was found to be 63.4%.

For the molecule `COC(=O)c1cc(=O)n(Cc2ccc(F)cc2)c(=Nc2ccccc2)s1`, the IC50 in assay [1] was > 50 µM (inactive). Further, the inhibition in assay [2] amounted to 15.5%.

As for `COc1cccc(C2CC3C(=O)C=CC2N3Cc2ccccc2)c1` (stereo unspecified), the concentration for half-maximal inhibition (IC50) in assay [1] is 13.3 µM. This molecule returned an inhibition in assay [2] of 90%.

As for `CCOC(=O)CC1C(=O)NCCN1c1nc2ccc(C)cn2c(=O)c1/C=C1\SC(=S)N(C(C)CC)C1=O` (stereo unspecified), the IC50 in assay [1] was 27.3 µM. Also, the inhibition in assay [2] is 80.8%.

With `N#C/C(=C/c1ccc(N2CCCCC2)o1)C(=O)NCCc1c[nH]c2ccccc12`, the IC50 in assay [1] is 31.8 µM. The same molecule had an inhibition in assay [2] of 98.8%.

`Cc1cc(C(=O)CCl)c(C)n1Cc1ccco1`: in assay [1], the IC50 was 13.5 µM. In addition, the inhibition in assay [2] was 85.7%.

Regarding `Cc1nc([N+](=O)[O-])c(Br)n1CC(=O)c1ccc(Br)cc1`, the 50% inhibitory concentration (IC50) in assay [1] is 14.7 µM. This molecule also had an inhibition in assay [2] of 82%.

For `Cc1cc(C)cc(Cn2ncc(Cl)c(Cl)c2=O)c1`, the 50% inhibitory concentration (IC50) in assay [1] was 22.7 µM. The molecule further displayed an inhibition in assay [2] of 63.9%.

As to `O=c1cc(N=Nc2ccc(Cl)cc2)[nH]c(=O)[nH]1`, in assay [1], the 50% inhibitory concentration (IC50) is 13.6 µM. In assay [2], this molecule showed an inhibition of 80.6%.

With `COc1ccc(-c2csc3nc(-c4ccccc4F)oc(=O)c23)cc1OC`, in assay [1], the IC50 was > 50 µM (inactive). This molecule also came in with an inhibition in assay [2] of 20.3%.

`O=C1C=C(c2ccc(Cl)cc2)C(=O)N1Nc1ccccc1`: the half-inhibitory concentration (IC50) in assay [1] is 39.3 µM. In assay [2], this molecule gave an inhibition of 75.7%.

For the molecule `CC1(C)COC(/C=C/c2cccc([N+](=O)[O-])c2)=N1`, in assay [1], the IC50 was 10 µM. This molecule also returned an inhibition in assay [2] of 88.6%.

For `COc1cc(/C=C/C(=O)c2ccc(F)cc2)cc(OC)c1OC`, the IC50 in assay [1] is 36.7 µM. For the same molecule, the inhibition in assay [2] turned out to be 69.5%.

Consider `Cc1ccc(-n2ncc(Br)c(Br)c2=O)cc1`, for which the IC50 in assay [1] is 13.8 µM. In addition, the inhibition in assay [2] was determined as 70.1%.

In the case of `CCOC(=O)C(C(=O)OCC)C(C(=O)OCC)N1CCOCC1` (stereo unspecified), in assay [1], the IC50 is 14 µM. In assay [2], the inhibition is 89.2%.

Take `O=C1NC(=O)N(c2ccccc2)C(=O)/C1=C\c1ccc([N+](=O)[O-])s1`: the IC50 in assay [1] is 14.4 µM. The same molecule registered an inhibition in assay [2] of 85.5%.

Regarding `Cn1cnc([N+](=O)[O-])c1S(=O)(=O)c1ccc(Cl)cc1`, in assay [1], the 50% inhibitory concentration (IC50) is 3.72 µM. Besides, the inhibition in assay [2] was found to be 78.2%.

For the molecule `O=C(Cc1ccccc1)Nc1cccc(N2C(=O)C=CC2=O)c1`, in assay [1], the IC50 was > 50 µM (inactive). In assay [2], this molecule yielded an inhibition of 4.22%.

With `Cc1ccc(N2C(=O)NC(=O)/C(=C\C=C\c3ccco3)C2=O)cc1C`, the IC50 in assay [1] is 32.4 µM. The same molecule registered an inhibition in assay [2] of 83.1%.

Regarding `COc1ccc(-n2cccc2/C=C/[N+](=O)[O-])cc1`, the IC50 in assay [1] was > 50 µM (inactive). Moreover, in assay [2], the inhibition came out at 14.4%.

Take `CC1(C)CCSC(/C=C/c2ccccc2)=N1`: the IC50 in assay [1] is 18.7 µM. The inhibition in assay [2] was 92.6%.
